Biological target: T1, AM2 receptor (CALCRL+RAMP3) (Homo sapiens, UniProt O60896+Q16602)
T1 construct: host or cells: 1321N1
Test: AM2 receptor inhibition, LANCE TR-FRET cAMP agonist-antagonist competition assay
Format: cell-based
Conditions: inhibition of AM induced cAMP activation; 1321N1 cells transfected with CALCRL+RAMP3; read-out: AM2 pIC50 (converted)

T1 sequence (Q16602 23-461): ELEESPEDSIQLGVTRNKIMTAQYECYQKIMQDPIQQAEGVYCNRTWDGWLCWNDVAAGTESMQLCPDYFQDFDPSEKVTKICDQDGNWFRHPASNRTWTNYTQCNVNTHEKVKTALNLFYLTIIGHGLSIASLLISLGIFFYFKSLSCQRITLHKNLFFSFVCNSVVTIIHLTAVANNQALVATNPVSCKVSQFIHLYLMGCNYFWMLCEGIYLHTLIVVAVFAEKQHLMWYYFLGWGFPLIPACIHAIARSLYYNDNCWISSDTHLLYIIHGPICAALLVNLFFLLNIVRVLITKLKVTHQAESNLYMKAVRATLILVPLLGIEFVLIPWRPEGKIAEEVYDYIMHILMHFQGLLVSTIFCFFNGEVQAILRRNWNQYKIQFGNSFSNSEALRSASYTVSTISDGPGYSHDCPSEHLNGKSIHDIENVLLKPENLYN
T1 sequence (O60896 24-148): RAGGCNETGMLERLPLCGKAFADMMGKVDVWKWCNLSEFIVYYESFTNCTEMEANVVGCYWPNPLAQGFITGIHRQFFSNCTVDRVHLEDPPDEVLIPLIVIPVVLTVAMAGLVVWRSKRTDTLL

IC50 [µM] | Compound
0.0123 | CC(C)(C)C(=O)N(CC(=O)Nc1ccc2c(c1)CC1(C2)C(=O)Nc2ncccc21)Cc1ccccc1CNCCF (stereo not drawn) [Example 17, N-(2-(((2-Fluoroethyl)amino)methyl)benzyl)-N-(2-oxo-2-((2′-oxo-1,1′,2′,3-tetrahydrospiro[indene-2,3′-pyrrolo[2,3-b]pyridin]-5-yl)amino)ethyl)pivalamide]
0.0933 | CNCc1c(F)cccc1CN(CC(=O)Nc1ccc2c(c1)CC1(C2)C(=O)Nc2ncccc21)C(=O)C(C)(C)C (stereo not drawn) [Example 36, N-(3-fluoro-2-((methylamino)methyl)benzyl)-N-(2-oxo-2-((2′-oxo-1,1′,2′,3-tetrahydrospiro[indene-2,3′-pyrrolo[2,3-b]pyridin]-5-yl)amino)ethyl)pivalamide]
0.151 | CNCc1ccccc1CN(CC(=O)Nc1ccc2c(n1)CC1(C2)C(=O)Nc2ncccc21)C(=O)C(C)(C)C (stereo not drawn) [Example 104, N-(2-((methylamino)methyl)benzyl)-N-(2-oxo-2-((2′-oxo-1′,2′,5,7-tetrahydrospiro[cyclopenta[b]pyridine-6,3′-pyrrolo[2,3-b]pyridin]-2-yl)amino)ethyl)pivalamide]
0.186 | CN(C)CCCNCc1ccccc1CN(CC(=O)Nc1ccc2c(c1)CC1(C2)C(=O)Nc2ncccc21)C(=O)C(C)(C)C (stereo not drawn) [Example 12, N-(2-(((3-(Dimethylamino)propyl)amino)methyl)benzyl)-N-(2-oxo-2-((2′-oxo-1,1′,2′,3-tetrahydrospiro[indene-2,3′-pyrrolo[2,3-b]pyridin]-5-yl)amino)ethyl)pivalamide]
0.135 | CC(=N)NCc1ccccc1CN(CC(=O)Nc1ccc2c(c1)CC1(C2)C(=O)Nc2ncccc21)C(=O)C(C)(C)C (stereo not drawn) [Example 42, N-(2-(Acetimidamidomethyl)benzyl)-N-(2-oxo-2-((2′-oxo-1,1′,2′,3-tetrahydrospiro[indene-2,3′-pyrrolo[2,3-b]pyridin]-5-yl)amino)ethyl)pivalamide]
0.049 | CNCc1ccccc1CN(CC(=O)Nc1ccc2c(c1)C[C@@]1(C2)C(=O)Nc2ncccc21)C(=O)C(C)(C)C(F)(F)F [Example 96, 3,3,3-trifluoro-2,2-dimethyl-N-[[2-(methylaminomethyl)phenyl]methyl]-N-[2-oxo-2-[[(3R)-2-oxospiro[1H-pyrrolo[2,3-b]pyridine-3,2′-indane]-5′-yl]amino]ethyl]propanamide 2,2,2-trifluoroacetate]
0.0331 | CC(C)(C)C(=O)N(CC(=O)Nc1ccc2c(c1)CC1(C2)C(=O)Nc2ncccc21)Cc1ccccc1CNCCO (stereo not drawn) [Example 13, N-(2-(((2-Hydroxyethyl)amino)methyl)benzyl)-N-(2-oxo-2-((2′-oxo-1,1′,2′,3-tetrahydrospiro[indene-2,3′-pyrrolo[2,3-b]pyridin]-5-yl)amino)ethyl)pivalamide]

Further lines, the compound ahead of its results:

Compound | IC50 [µM]
CNCc1ccccc1CN(CC(=O)Nc1ccc2c(c1)CC1(C2)C(=O)Nc2ncccc21)C(=O)C(C)(C)c1ccc(CN2CCNCC2)cc1 (stereo not drawn) [Example 91, 2-Methyl-N-(2-((methylamino)methyl)benzyl)-N-(2-oxo-2-((2′-oxo-1,1′,2′,3-tetrahydrospiro[indene-2,3′-pyrrolo[2,3-b]pyridin]-5-yl)amino)ethyl)-2-(4-(piperazin-1-ylmethyl)phenyl)propanamide] | 0.024
CNCc1ccccc1CN(CC(=O)Nc1ccc2c(c1)CC1(C2)C(=O)Nc2ncccc21)C(=O)C12CC(C1)C2 (stereo not drawn) [Example 78, N-(2-((methylamino)methyl)benzyl)-N-(2-oxo-2-((2′-oxo-1,1′,2′,3-tetrahydrospiro[indene-2,3′-pyrrolo[2,3-b]pyridin]-5-yl)amino)ethyl)bicyclo[1.1.1]pentane-1-carboxamide 2,2,2-trifluoroacetate] | 0.0055
CNCc1ccccc1CN(CC(=O)Nc1ccc2c(c1)CC1(C2)C(=O)Nc2ncccc21)C(=O)C1CCCN1C(C)=O (stereo not drawn) [Example 69, 1-Acetyl-N-[[2-(methylaminomethyl)phenyl]methyl]-N-[2-oxo-2-[(2-oxospiro[1H-pyrrolo[2,3-b]pyridine-3,2′-indane]-5′-yl)amino]ethyl]pyrrolidine-2-carboxamide] | 0.129
CNCc1ccccc1CN(CC(=O)Nc1ccc2c(c1)CC1(C2)C(=O)Nc2ncccc21)C(=O)c1csc(C)n1 (stereo not drawn) [Example 61, 2-Methyl-N-(2-((methylamino)methyl)benzyl)-N-(2-oxo-2-((2′-oxo-1,1′,2′,3-tetrahydrospiro[indene-2,3′-pyrrolo[2,3-b]pyridin]-5-yl)amino)ethyl)thiazole-4-carboxamide] | 0.219
CNCc1ccccc1CN(CC(=O)Nc1ccc2c(c1)CC1(C2)C(=O)Nc2ncccc21)C(=O)C1CCN(C(C)=O)C1 (stereo not drawn) [Example 74, 1-acetyl-N-(2-((methylamino)methyl)benzyl)-N-(2-oxo-2-((2′-oxo-1,1′,2′,3-tetrahydrospiro[indene-2,3′-pyrrolo[2,3-b]pyridin]-5-yl)amino)ethyl)pyrrolidine-3-carboxamide 2,2,2-trifluoroacetate] | 0.0155
CC(C)(C)C(=O)N(CC(=O)Nc1ccc2c(c1)C[C@@]1(C2)C(=O)Nc2ncccc21)C1CNCc2ccccc21 (stereo partly drawn) [Example 101, 2,2-Dimethyl-N-[2-oxo-2-[(2-oxospiro[1H-pyrrolo[2,3-b]pyridine-3,2′-indane]-5′-yl)amino]ethyl]-N-(1,2,3,4-tetrahydroisoquinolin-4-yl)propanamide 2,2,2-trifluoroacetate] | 0.0398
CNCc1ccccc1CN(CC(=O)Nc1ccc2c(c1)C[C@@]1(C2)C(=O)Nc2ncccc21)C(=O)C12CC3CC(CC(C3)C1)C2 [Example 92, N-[[2-(methylaminomethyl)phenyl]methyl]-N-[2-oxo-2-[[(3R)-2-oxospiro[1H-pyrrolo[2,3-b]pyridine-3,2′-indane]-5′-yl]amino]ethyl]adamantane-1-carboxamide 2,2,2-trifluoroacetate] | 0.0794
CNCc1ccccc1CN(CC(=O)Nc1ccc2c(c1)CC1(C2)C(=O)Nc2ncccc21)C(=O)c1ncsc1C (stereo not drawn) [Example 62, 5-Methyl-N-(2-((methylamino)methyl)benzyl)-N-(2-oxo-2-((2′-oxo-1,1′,2′,3-tetrahydrospiro[indene-2,3′-pyrrolo[2,3-b]pyridin]-5-yl)amino)ethyl)thiazole-4-carboxamide] | 0.0427
CNCc1ccccc1CN(CC(=O)Nc1ccc2c(c1)CC1(C2)C(=O)Nc2ncccc21)C(=O)C1CCNCC1 (stereo not drawn) [Example 88, N-(2-((Methylamino)methyl)benzyl)-N-(2-oxo-2-((2′-oxo-1,1′,2′,3-tetrahydrospiro[indene-2,3′-pyrrolo[2,3-b]pyridin]-5-yl)amino)ethyl)piperidine-4-carboxamide] | 0.148
CC(C)(C)C(=O)N(CC(=O)Nc1ccc2c(c1)CC1(C2)C(=O)Nc2ncccc21)Cc1ccccc1CN1CCCC1 (stereo not drawn) [Example 4, N-(2-Oxo-2-((2′-oxo-1,1′,2′,3-tetrahydrospiro[indene-2,3′-pyrrolo[2,3-b]pyridine]-5-yl)amino)ethyl)-N-(2-(pyrrolidin-1-ylmethyl)benzyl)pivalamide] | 0.0603
O=C(CN(Cc1ccccc1CN1CCC1)C(=O)c1ccccn1)Nc1ccc2c(c1)CC1(C2)C(=O)Nc2ncccc21 (stereo not drawn) [Example 52, N-(2-(Azetidin-1-ylmethyl)benzyl)-N-(2-oxo-2-((2′-oxo-1,1′,2,3-tetrahydrospiro[indene-2,3′-pyrrolo[2,3-b]pyridin]-5-yl)amino)ethyl)picolinamide] | 0.0468
